From publication PMC4050313, “Panaxadiol and Panaxatriol Derivatives as Anti-Hepatitis B Virus Inhibitors” (Natural Products and Bioprospecting, 2014)

Assays:
[1] = Cytotoxicity, modified MTT method; assay type: cell-based; conditions: human; 50 % cytotoxicity concentration in HepG 2.2.15 cells; means of two independent experiments
Procedure: (§1) Based on our previous description, inhibitory activity on HBV (HBsAg, HBeAg and HBV DNA) was evaluated. […] Cytotoxicity was assayed with a modified 3-(4,5-dimethylthiazole-2-yl)-2,5-diphenyltetrazolium bromide (MTT) method (Gibco Invitrogen, Carlsbad, CA, USA). The anti-HBV antigen secretion activities were determined by the enzyme linked immunosorbent assay (ELISA; Autobio Diagnostics Co., Ltd, China). A real-time PCR assay was applied to detect the inhibitory activity on HBV DNA replication.

HBsAg secretion = test: microbe, parasite or virus in culture; assay type: cell-based, Hepatitis B virus; conditions: Hepatitis B virus, HepG2.2.15, read-out: HBsAg IC50
Procedure: as §1

HBeAg secretion = test: microbe, parasite or virus in culture; assay type: cell-based, Hepatitis B virus; conditions: Hepatitis B virus, HepG2.2.15, read-out: HBeAg IC50
Procedure: as §1

HBV DNA replication = test: Inhibition of HBV DNA replication, real-time PCR, HepG 2.2.15 cells; assay type: cell-based, Hepatitis B virus; conditions: Hepatitis B virus, HepG2.2.15; HepG 2.2.15 cells; means of two independent experiments
Procedure: as §1

[2] = system: liver injury induced by D-galactosamine and lipopolysaccharide; set-up: method as in PMID 12880307; conditions: liver injury induced by D-galactosamine and lipopolysaccharide in mice; cited from earlier work
[3] = system: herpes simplex virus type I; set-up: method as in doi:10.3109/13880209509088139; conditions: cited from earlier work

Compound | CC50 [1] | IC50 (HBsAg secretion) | IC50 (HBeAg secretion) | IC50 (HBV DNA replication) | hepatoprotective activity [2] | ID50, reduced yield of herpes simplex virus type I [3]
CC1(C)CCC[C@](C)([C@H]2CC[C@]3(C)[C@@H]2[C@H](O)C[C@@H]2[C@@]4(C)CC[C@H](O)C(C)(C)[C@@H]4CC[C@]23C)O1 [PD, Panaxadiol] | 923 µM | > 2280 µM | > 2280 µM | 148 µM |  | 
CC1(C)CCC[C@](C)([C@H]2CC[C@]3(C)[C@@H]2[C@H](O)C[C@@H]2[C@@]4(C)CC[C@H](O)C(C)(C)[C@@H]4[C@@H](O)C[C@]23C)O1 [PT, Panaxatriol] | > 2420 µM | > 2420 µM | > 2420 µM | 669 µM |  | 
CC(C)=CCC[C@](C)(O[C@@H]1O[C@H](CO)[C@@H](O)[C@H](O)[C@H]1O)[C@H]1CC[C@]2(C)[C@@H]1[C@H](O)C[C@@H]1[C@@]3(C)CC[C@H](O[C@@H]4O[C@H](CO)[C@@H](O)[C@H](O)[C@H]4O[C@@H]4O[C@H](CO)[C@@H](O)[C@H](O)[C@H]4O)C(C)(C)[C@@H]3CC[C@]12C [Rd, ginsenoside Rd] |  |  |  |  | showed hepatoprotective activity | 
C[C@H](Cn1cnc2c(N)ncnc21)OCP(=O)(O)O [Tf, Tenofovir, reference compound] | > 1720 µM | 1390 µM | 1240 µM | 0.71 µM |  | 
CC(C)=CCC[C@](C)(O[C@@H]1O[C@H](CO[C@@H]2O[C@H](CO)[C@@H](O)[C@H](O)[C@H]2O)[C@@H](O)[C@H](O)[C@H]1O)[C@H]1CC[C@]2(C)[C@@H]1[C@H](O)C[C@@H]1[C@@]3(C)CC[C@H](O[C@@H]4O[C@H](CO)[C@@H](O)[C@H](O)[C@H]4O)C(C)(C)[C@@H]3CC[C@]12C [XVII, ginsenoside XVII] |  |  |  |  | showed hepatoprotective activity | 
CC(C)=CCC[C@](C)(O)[C@H]1CC[C@]2(C)[C@@H]1[C@H](O)C[C@@H]1[C@@]3(C)CC[C@H](O[C@@H]4O[C@H](CO[C@@H]5OC[C@@H](O)[C@H](O)[C@H]5O)[C@@H](O)[C@H](O)[C@H]4O[C@@H]4O[C@H](CO)[C@@H](O)[C@H](O)[C@H]4O)C(C)(C)[C@@H]3CC[C@]12C [chikusetsusaponin III] |  |  |  |  |  | 29 µM
CC(C)=CCC[C@](C)(O[C@@H]1O[C@H](CO)[C@@H](O)[C@H](O)[C@H]1O)[C@H]1CC[C@]2(C)[C@@H]1[C@H](O)C[C@@H]1[C@@]3(C)CC[C@H](O)C(C)(C)[C@@H]3[C@@H](O[C@@H]3O[C@H](CO)[C@@H](O)[C@H](O)[C@H]3O[C@@H]3OC[C@@H](O)[C@H](O)[C@H]3O)C[C@]12C [notoginsenoside R1] |  |  |  |  | showed hepatoprotective activity | 
